From PubChem BioAssay AID248 (DTP/NCI, 2004)
Several values for one entry are separate records, joined by “and”; a condition that tells them apart may be missing. Identical values can stand only once. Inconclusive results and toxic doses are left out.

System: L1210 leukemia ip in BDF1 mice, survival T/C
Assay: NCI In Vivo Anticancer Drug Screen. Data for tumor model L1210 Leukemia (intraperitoneal) in B6D2F1 (BDF1) mice
Conditions: endpoint: mean survival time, higher = longer survival
Procedure, shortened: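 Each compound was tested against a transplantable tumor grown in mice. The endpoint was survival, with treated animals benchmarked against vehicle controls as a simple ratio.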

[1] = dose: 50.0 mg/kg/injection, schedule: Q01DX009 (ip), vehicle: saline with Tween-80
[2] = dose: 50.0 mg/kg/injection, schedule: Q04DX003 (ip), vehicle: saline with Tween-80
[3] = dose: 100.0 mg/kg/injection, schedule: Q01DX009 (ip), vehicle: saline with Tween-80
[4] = dose: 100.0 mg/kg/injection, schedule: Q04DX003 (ip), vehicle: saline with Tween-80
[5] = dose: 200.0 mg/kg/injection, schedule: Q04DX003 (ip), vehicle: saline with Tween-80
[6] = dose: 100.0 mg/kg/injection, schedule: Q04DX003 (ip), vehicle: saline
[7] = dose: 200.0 mg/kg/injection, schedule: Q04DX003 (ip), vehicle: saline
[8] = dose: 400.0 mg/kg/injection, schedule: Q04DX003 (ip), vehicle: saline

c1ccc(C(Nc2ccnc3nc[nH]c23)c2ccccc2)cc1
T/C (dose: 25.0 mg/kg/injection, schedule: Q01DX001 (ip), vehicle: saline with Tween-80): 107 % of control
T/C (dose: 50.0 mg/kg/injection, schedule: Q01DX001 (ip), vehicle: saline with Tween-80): 102 % of control
T/C [1]: 96 % of control
T/C [2]: 95 % of control
T/C (dose: 75.0 mg/kg/injection, schedule: Q01DX001 (ip), vehicle: saline with Tween-80): 101 % of control
T/C (dose: 100.0 mg/kg/injection, schedule: Q01DX001 (ip), vehicle: saline with Tween-80): 94 % of control
T/C [3]: 107 % of control
T/C [4]: 91 % of control
T/C (dose: 200.0 mg/kg/injection, schedule: Q01DX001 (ip), vehicle: saline with Tween-80): 93 % of control
T/C [5]: 92 % of control

O=Cc1ccc2c(c1)C(=O)c1ccccc1C2=O
T/C (dose: 100.0 mg/kg/injection, schedule: Q04DX002 (ip), vehicle: Klucel (hydroxypropylcellulose) (HPC)): 90 % of control
T/C (dose: 200.0 mg/kg/injection, schedule: Q04DX002 (ip), vehicle: Klucel (hydroxypropylcellulose) (HPC)): 97 % of control
T/C (dose: 400.0 mg/kg/injection, schedule: Q04DX002 (ip), vehicle: Klucel (hydroxypropylcellulose) (HPC)): 93 % of control

O=C(CCl)Nc1ccccn1
T/C [6]: 97 % of control
T/C [7]: 97 % of control
T/C [8]: 88 % of control

CNC1=C(N2CC2C)C(=O)C(NC)=C(N2CC2C)C1=O (centres undefined)
T/C (dose: 0.31 mg/kg/injection, schedule: Q01DX009 (ip), vehicle: saline): 104 % of control and 108 % of control
T/C (dose: 0.62 mg/kg/injection, schedule: Q01DX009 (ip), vehicle: saline): 104 % of control
T/C (dose: 1.25 mg/kg/injection, schedule: Q01DX009 (ip), vehicle: saline): 114 % of control and 116 % of control
T/C (dose: 1.56 mg/kg/injection, schedule: Q04DX003 (ip), vehicle: saline): 101 % of control
T/C (dose: 2.5 mg/kg/injection, schedule: Q01DX009 (ip), vehicle: saline): 116 % of control
T/C (dose: 3.12 mg/kg/injection, schedule: Q04DX003 (ip), vehicle: saline): 98 % of control and 111 % of control and 115 % of control
T/C (dose: 5.0 mg/kg/injection, schedule: Q01DX009 (ip), vehicle: saline): 169 % of control
T/C (dose: 6.25 mg/kg/injection, schedule: Q04DX003 (ip), vehicle: saline): 109 % of control and 123 % of control
T/C (dose: 10.0 mg/kg/injection, schedule: Q01DX001 (ip), vehicle: saline): 96 % of control
T/C (dose: 10.0 mg/kg/injection, schedule: Q01DX009 (ip), vehicle: saline): 94 % of control and 119 % of control
T/C (dose: 12.0 mg/kg/injection, schedule: Q04DX003 (ip), vehicle: saline): 152 % of control
T/C (dose: 12.5 mg/kg/injection, schedule: Q04DX003 (ip), vehicle: saline): 152 % of control and 193 % of control
T/C (dose: 25.0 mg/kg/injection, schedule: Q04DX003 (ip), vehicle: saline): 96 % of control and 118 % of control
T/C (dose: 50.0 mg/kg/injection, schedule: Q04DX003 (ip), vehicle: saline): 98 % of control and 89 % of control

Nc1nc(-c2ccccc2)cs1
T/C (dose: 25.0 mg/kg/injection, schedule: Q01DX009 (ip), vehicle: saline with Tween-80): 106 % of control
T/C (dose: 25.0 mg/kg/injection, schedule: Q04DX003 (ip), vehicle: saline with Tween-80): 100 % of control
T/C [1]: 108 % of control
T/C [2]: 92 % of control
T/C [3]: 106 % of control
T/C [4]: 92 % of control

C[N+]1(CCC[N+]2(C)CC3CC=CCC3C2)CCOCC1 (centres undefined)
T/C [6]: 92 % of control
T/C [7]: 92 % of control
T/C [8]: 92 % of control

S=c1[nH]ccc2n[nH]nc12
T/C [4]: 101 % of control
T/C [5]: 98 % of control
T/C (dose: 400.0 mg/kg/injection, schedule: Q04DX003 (ip), vehicle: saline with Tween-80): 101 % of control

CCc1cccc(CC)c1NC(=O)CS
T/C [4]: 94 % of control
T/C [5]: 95 % of control
